Measured values as given in paper PMC9278120, “Epitope alteration by small molecules and applications in drug discovery” (Chemical Science, 2022).
One block for each molecule: values may come before it.

Assays:
[1] = target: T1, amyloid beta (Aβ1–40) (Homo sapiens, UniProt P05067); experiment: FRET titration of ternary complex with 4G8 and PE-labelled secondary antibody; dot blot; fluorescence probe in competition; assay type: binding; design: gene APP; Aβ1–40 monomers (also oligomers and aggregates); with 4G8 antibody
T1 sequence (P05067 672-711): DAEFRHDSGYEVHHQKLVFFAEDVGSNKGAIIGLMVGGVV

[2] = target: T1, amyloid beta (Aβ1–40); experiment: fluorescence competition with CRANAD-3; also antibody dot blot, MSD, Simoa and ThT aggregation assay; assay type: binding; design: gene APP; Aβ1–40 monomers
[3] = target: T1, amyloid beta (Aβ1–40); experiment: concentration-dependent 4G8 dot blot (one-site binding fit); ANS fluorescence; FRET; MSD/Simoa; design: gene APP; Aβ1–40; fragment Aβ17–24 also tested by ANS; with 4G8 antibody

Molecule: CCN(CC)c1ccc(/C=C/C2=CC(/C=C/c3ccc(N(CC)CC)nc3)=[O+][B-](F)(F)O2)cn1 [CRANAD-3]
- FRET titration of ternary complex with 4G8 and PE-labelled secondary antibody; d [1]: enhanced antibody recognition was due to the formation of the ternary complex of CRANAD-3, Aβs and 4G8 antibody

- Ki [2]: 4.16 ± 1.04 nM
Molecule: Cc1ccc(NC(=O)Nc2cc(C(F)(F)F)ccc2F)cc1Nc1ccc2c(c1)NC(=O)/C2=C\c1ccc[nH]1 [GNF-5837]

- EC50 [3]: 121 nM
Molecule: CRANAD-17
